Literature values in patent US20040034083A1, “Combination therapy for the treatment of Parkinson's disease with cyclooxygenase-2 (COX2) inhibitor(s)” (priority 2002, published 2004).

Key:
[1] = levodopa/carbidopa therapy of PD

SMILES: N[C@@H](Cc1ccc(O)c(O)c1)C(=O)O [levodopa]
- fraction of levodopa that reaches the brain (levodopa alone administered orally): about 1%
- fraction of orally administered levodopa metabolized by decarboxylase (then unable to cross the BBB) (oral administration, without carbidopa): Up to 99%
- duration of effectiveness after initiation of therapy [1]: about 5 years
